According to US8299124B2, “Aqueous intraocular penetration-promoting eye drop” (Senju Pharmaceutical Co., Ltd., priority 2004, dated 2012):

Tests used:
[1] = tested on: intraocular inflammation after anterior chamber puncture; test: Medicinal efficacy test in a model rabbit of anterior chamber puncture; format: in vivo, Male Dutch rabbits; conditions: after anterior chamber puncture in rabbits
Experimental: The concentration of said medicament in the anterior chamber can be measured by the HPLC method for the anterior aqueous humor collected through anterior chamber puncture, as shown in Experimental Example 1 (Penetration Test of a Medicament in the Aqueous Humor) described below. Male Dutch rabbits (Biotech Co., Ltd) with a body weight of about 2 kg was bred and acclimatized under the condition that the temperature was 23±2° C. and the humidity was 55±10%. On the day of the test, the flare value of anterior chamber in the rabbits was determined by a laser flare cell meter (FC-1000, Kowa Company, Ltd.). […] The eye drops of Formulations 4 to 6 in Table 4 were prepared and used. At 30 minutes before the puncture of the anterior chamber, 1,000 U/kg of heparin (Heparin sodium injection, Ajinomoto Co., Inc.) was administered into the rabbit's ear vein. […] The flare value (photon count/msec) in the anterior chamber was determined 30 minutes after the puncture of anterior chamber using a laser flare cell meter (FC-1000, Kowa Company, Ltd.). […] An inhibition rate of inflammation after the puncture of anterior chamber was calculated according to the following equation. […]

[2] = pH 7.8

| SMILES | concentration in the anterior aqueous humor at which the intraocular inflammation can be inhibited by at least not less than about 25% (therapeutically effective concentration) [1] | Octanol-water partition coefficient of 2-amino-3-(4-bromobenzoyl)phenylacetic acid [2] |
| --- | --- | --- |
| Nc1c(CC(=O)O)cccc1C(=O)c1ccc(Br)cc1 [2-Amino-3-(4-bromobenzoyl)phenylacetic acid] | not less than 1.5 ng/mL | – |
| Nc1c(CC(=O)[O-])cccc1C(=O)c1ccc(Br)cc1.Nc1c(CC(=O)[O-])cccc1C(=O)c1ccc(Br)cc1.O.O.O.[Na+].[Na+] [Control, Sodium 2-amino-3-(4-bromobenzoyl)phenylacetate 3/2 hydrate, reference compound] | – | 0.60 |
